Laboratory results from ChEMBL document CHEMBL1201862, “PubChem BioAssay data set” (2004).
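How tested: cells in 96-well plates exposed to compound for 48 hours at five concentrations. GI50 = concentration required for 50% inhibition of growth.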 The source made the active and inactive calls. Rule as the data show it: active = GI50 up to about 1.1 µM and inactive = higher.

What was measured:
Assay in all cases: NCI anticancer screen, dose series, 48 h
CAKI-1 = test system: CAKI-1
KM12 = test system: KM12
HOP-62 = test system: HOP-62
NCI-H460 = test system: NCI-H460
SNB-19 = test system: SNB-19
SK-MEL-2 = test system: SK-MEL-2
M14 = test system: M14
HCT-116 = test system: HCT-116
OVCAR-3 = test system: OVCAR-3
OVCAR-4 = test system: OVCAR-4
786-0 = test system: 786-0
UO-31 = test system: UO-31
SF-268 = test system: SF-268
HCC 2998 = test system: HCC 2998
EKVX = test system: EKVX
COLO 205 = test system: COLO 205
SF-295 = test system: SF-295
OVCAR-5 = test system: OVCAR-5

Measured: GI50

C/C(=N/OCCC(=O)O)C1CC1
inactive: CAKI-1 > 100 µM | KM12 > 100 µM | HOP-62 > 100 µM | NCI-H460 > 100 µM | SNB-19 > 100 µM | SK-MEL-2 > 100 µM | M14 > 100 µM | HCT-116 > 100 µM | OVCAR-3 > 100 µM | OVCAR-4 > 100 µM | 786-0 > 100 µM | UO-31 > 100 µM | SF-268 > 100 µM | HCC 2998 > 100 µM | EKVX > 100 µM | COLO 205 > 100 µM | SF-295 > 100 µM

Cc1ccc(-c2cc(=S)n(-c3ccccc3)c3[nH]c(=S)n(-c4ccccc4)c(=N)c23)cc1
inactive: CAKI-1 > 100 µM | KM12 > 100 µM | HOP-62 > 100 µM | NCI-H460 > 100 µM | SNB-19 > 100 µM | OVCAR-5 > 100 µM | SK-MEL-2 > 100 µM | M14 > 100 µM | HCT-116 > 100 µM | OVCAR-3 > 100 µM | OVCAR-4 > 100 µM | 786-0 > 100 µM | UO-31 > 100 µM | SF-268 > 100 µM | HCC 2998 > 100 µM | COLO 205 > 100 µM | SF-295 > 100 µM

COc1cc(/C=C2\C(=O)N(C(=O)c3ccc(NC(C)=O)cc3)N=C2C)ccc1O
inactive: CAKI-1 > 100 µM | KM12 > 100 µM | HOP-62 > 100 µM | NCI-H460 > 100 µM | SNB-19 > 100 µM | OVCAR-5 > 100 µM | M14 > 100 µM | HCT-116 > 100 µM | OVCAR-3 > 100 µM | OVCAR-4 > 100 µM | 786-0 > 100 µM | UO-31 > 100 µM | SF-268 > 100 µM | HCC 2998 > 100 µM | EKVX > 100 µM | COLO 205 > 100 µM | SF-295 > 100 µM

CCc1ccccc1NC(=O)C1=C(C)NC(C)=C(C(=O)Nc2ccccc2CC)C1c1ccc(NC(C)=O)cc1
inactive: CAKI-1 43.1 µM | KM12 28.1 µM | HOP-62 36.7 µM | NCI-H460 30.5 µM | SNB-19 92.7 µM | OVCAR-5 > 100 µM | SK-MEL-2 22.4 µM | M14 39 µM | HCT-116 35.2 µM | OVCAR-3 33.2 µM | OVCAR-4 35.1 µM | 786-0 37.8 µM | UO-31 35.2 µM | SF-268 38.1 µM | HCC 2998 19.5 µM | EKVX 60.7 µM | COLO 205 58.3 µM | SF-295 54.7 µM

OCC1C(/C=C/c2ccoc2)ON2CCCC12 (stereo unspecified)
inactive: CAKI-1 > 100 µM | KM12 > 100 µM | HOP-62 > 100 µM | NCI-H460 > 100 µM | SNB-19 > 100 µM | OVCAR-5 > 100 µM | SK-MEL-2 > 100 µM | M14 > 100 µM | OVCAR-4 > 100 µM | 786-0 > 100 µM | UO-31 > 100 µM | SF-268 > 100 µM | HCC 2998 > 100 µM | EKVX > 100 µM | COLO 205 > 100 µM | SF-295 > 100 µM

CC(C)C(NCc1c2ccccc2nc2ccccc12)C(=O)O (stereo unspecified)
inactive: CAKI-1 28.6 µM | KM12 33.3 µM | HOP-62 > 100 µM | NCI-H460 31.1 µM | OVCAR-5 > 100 µM | SK-MEL-2 62.2 µM | M14 62.4 µM | HCT-116 26.4 µM | OVCAR-3 39.5 µM | OVCAR-4 15 µM | 786-0 61.2 µM | SF-268 36.7 µM | HCC 2998 47.9 µM | EKVX 40.6 µM | COLO 205 72.8 µM | SF-295 81.5 µM
